By Cmax is commonly meant the highest concentration seen after dosing.

The source made the active and inactive calls. No cut-off for these calls is given here. A value given as a limit tells only on which side of the number the result lay.

Data set [1] is described as follows: Cmax in fasted Sprague-Dawley rat at 23 mg/kg, po by LC-MS/MS analysis. Particulars: in vivo. In kind it is ADME, organism-based.
A short description of data set [2]: Prodrug conversion in Sprague-Dawley rat assessed as 4'-Fluorouridine metabolite formation in stomach at 6 mg/kg, po measured for 0.5 to 24 hrs by LC-MS/MS analysis. Particulars: in vivo, time 0.5-24 hrs. Format: ADME, organism-based.
The nature of data set [3]: Prodrug conversion in C57BL/6J mouse plasma assessed as parent nucleoside metabolite formation at 1 uM measured up to 60 mins by LC-MS/MS analysis. Format: ADME, cell-free. Particulars: 1 h.
Data set [4] in a line: Prodrug conversion in Beagle dog assessed as Cmax of 4'-Fluorouridine metabolite at 3 mg/kg, po by LC-MS/MS analysis. Particulars: in vivo. Format: ADME, organism-based, Canis lupus familiaris.
Data set [5] in a line: Stability of compound at pH 6.8 assessed as change in purity at 1 mg/ml incubated for 12 hrs by HPLC analysis. Format: physicochemical. Particulars: buffer, pH 6.8, 12 h.
The subject of data set [6] is Mammarenavirus choriomeningitidis. The experiment in a line: In vivo antiviral activity against LCMV infected in C57BL/6-Prf1tm1Sdz/J mouse assessed as void of inflammatory cell inflammation in spleen at 1 to 5 mg/kg, po qd for 7 days. Format: functional, organism-based. Particulars: dose 1-5 mg/kg, time 7.0 day.
Data set [7] can be described thus: Stability of compound at pH 4.0 assessed as change in purity at 1 mg/ml incubated for 4 hrs by HPLC analysis. In kind it is physicochemical. Particulars: buffer, pH 4, 4 h.
Data set [8] can be described thus: Stability in SGF assessed as compound degradation measured for 24 hrs by HPLC analysis. Particulars: simulated gastric fluid (SGF), read-out: Drug degradation. Format: physicochemical.
Data set [9] is described as follows: Stability of compound at pH 6.8 assessed as change in purity at 1 mg/ml incubated for 4 hrs by HPLC analysis. Format: physicochemical. Particulars: buffer, pH 6.8, 4 h.
Data set [10] relates to Mammarenavirus choriomeningitidis. Description: Antiviral activity against LCMV infected in C57BL/6-Prf1tm1Sdz/J mouse assessed as reduction in viral copy number in lung treated orally once daily for 7 days by RT-qPCR analysis. Format: functional, organism-based. Particulars: dose 1-5 mg/kg, route po, time 7.0 day.
Data set [11] in a line: Prodrug conversion in Beagle dog assessed as Cmax of 4'-Fluorouridine metabolite at 10 mg/kg, po by LC-MS/MS analysis. Format: ADME, organism-based, Canis lupus familiaris. Particulars: in vivo.
Data set [12] is described as follows: Prodrug conversion in Beagle dog liver microsomes assessed as parent nucleoside metabolite formation at 1 uM measured up to 60 mins in presence of NADPH/UDPGA by LC-MS/MS analysis. Format: ADME, Canis lupus familiaris, Microsome. Particulars: 1 h. A general note: Liver microsomes are a subcellular fraction often used to study metabolism.
The nature of data set [13]: Prodrug conversion in Sprague-Dawley rat assessed as 4'-Fluorouridine-NTP metabolite formation in brain at 6 mg/kg, po measured for 0.5 to 24 hrs by LC-MS/MS analysis. Particulars: in vivo, time 0.5-24 hrs. Format: ADME, organism-based.
In data set [14] the test system is Mammarenavirus choriomeningitidis. The experiment in a line: In vivo antiviral activity against LCMV infected in C57BL/6-Prf1tm1Sdz/J mouse assessed as improvement in lymphocytes percentage at 1 to 5 mg/kg, po qd treated for 7 days. Format: functional, organism-based. Particulars: dose 1-5 mg/kg, time 7.0 day.
Data set [15] has the same test system. The experiment in a line: Antiviral activity against LCMV infected in C57BL/6-Prf1tm1Sdz/J mouse assessed as reduction in viral copy number in spleen treated orally once daily for 7 days by RT-qPCR analysis. Format: functional, organism-based. Particulars: dose 1-5 mg/kg, route po, time 7.0 day. On the technique in general: Quantitative PCR measures a nucleic acid by following its amplification.

A short description of data set [16]: Prodrug conversion in Beagle dog plasma assessed as parent nucleoside metabolite formation administered orally or intravenously. Particulars: po. In kind it is ADME, cell-free, Canis lupus familiaris.
Data set [17] in a line: Prodrug conversion in Sprague-Dawley rat assessed as 4'-Fluorouridine-NTP metabolite formation in thymus at 6 mg/kg, po measured for 0.5 to 24 hrs by LC-MS/MS analysis. In kind it is ADME, organism-based. Particulars: in vivo, time 0.5-24 hrs.
Data set [18] can be described thus: Prodrug conversion in Sprague-Dawley rat assessed as AUC (0 to t) of 4'-Fluorouridine metabolite at 6 mg/kg/day, po treated for 7 days by LC-MS/MS analysis. Format: ADME, organism-based. Particulars: in vivo, 168 h, time 7 day.
The nature of data set [19]: Prodrug conversion in C57BL/6J mouse assessed as Cmax of 4'-Fluorouridine metabolite at 6 mg/kg, po by LC-MS/MS analysis. Particulars: in vivo. In kind it is ADME, organism-based.
Data set [20] is described as follows: Prodrug conversion in C57BL/6J mouse assessed as AUC (0 to t) of 4'-Fluorouridine metabolite at 20 mg/kg, po by LC-MS/MS analysis. In kind it is ADME, organism-based. Particulars: in vivo.
Data set [21] is described as follows: Prodrug conversion in Sprague-Dawley rat assessed as Cmax of 4'-Fluorouridine metabolite at 6 mg/kg/day, po treated for 7 days by LC-MS/MS analysis. Particulars: in vivo, 168 h, time 7 day. Format: ADME, organism-based.

Take `CC(C)C(=O)OC[C@@]1(F)O[C@@H](n2ccc(=O)n(COC(=O)c3cccnc3)c2=O)[C@H](OC(=O)C(C)C)[C@@H]1OC(=O)C(C)C`: the Cmax in data set [1] was found to be 1230 ng/mL; in [4], 495 ng/mL; in [11] it was 1501 ng/mL; in data set [19] it was 266 ng/mL; in data set [21], 383 ng/mL. The Drug metabolism result in data set [2], in data set [3], in data set [12], in data set [13], in data set [16] and in [17] was “metabolite_detected” in each case. The Activity in data set [5] was -0.3%; in data set [7] it was 0%; in [9], -0.1%; in data set [10] it was “Dose-dependent-effect”; in data set [15] it was “Dose-dependent-effect”. Further, the result in [6] and in data set [14] was Active. The degraded at 24 h in data set [8] is less than 5%. The AUCt in [18] was 4084 ng·h/mL; in data set [20], 7586 ng·h/mL.

The values are drawn from ChEMBL document CHEMBL6177980 (J Med Chem, 2025).
